A word on the IC50: it is the concentration needed to halve the response being measured.

The target of the assay is Human recombinant PDE4 (Genbank accession no NM—006203) (Homo sapiens, UniProt Q08499). Nature of the assay: PDE4 assay (SPA, cAMP cleavage). The format is biochemical. The settings on record: Example 53; PDE4 assay as in example 52; read-out: PDE4 IC50 range. Here is the method: At the end of the incubation, the cleavage of the substrate was evaluated by the binding of the AMP product to SPA beads, which generate chemoluminescence when bound to the radioactive tracer. The AMP product inhibited the binding of the radioactive tracer to the beads, and the luminescent signal was competed.
Human recombinant PDE4 (Genbank accession no NM—006203), sequence (Q08499 1-673 isoform Q08499-2): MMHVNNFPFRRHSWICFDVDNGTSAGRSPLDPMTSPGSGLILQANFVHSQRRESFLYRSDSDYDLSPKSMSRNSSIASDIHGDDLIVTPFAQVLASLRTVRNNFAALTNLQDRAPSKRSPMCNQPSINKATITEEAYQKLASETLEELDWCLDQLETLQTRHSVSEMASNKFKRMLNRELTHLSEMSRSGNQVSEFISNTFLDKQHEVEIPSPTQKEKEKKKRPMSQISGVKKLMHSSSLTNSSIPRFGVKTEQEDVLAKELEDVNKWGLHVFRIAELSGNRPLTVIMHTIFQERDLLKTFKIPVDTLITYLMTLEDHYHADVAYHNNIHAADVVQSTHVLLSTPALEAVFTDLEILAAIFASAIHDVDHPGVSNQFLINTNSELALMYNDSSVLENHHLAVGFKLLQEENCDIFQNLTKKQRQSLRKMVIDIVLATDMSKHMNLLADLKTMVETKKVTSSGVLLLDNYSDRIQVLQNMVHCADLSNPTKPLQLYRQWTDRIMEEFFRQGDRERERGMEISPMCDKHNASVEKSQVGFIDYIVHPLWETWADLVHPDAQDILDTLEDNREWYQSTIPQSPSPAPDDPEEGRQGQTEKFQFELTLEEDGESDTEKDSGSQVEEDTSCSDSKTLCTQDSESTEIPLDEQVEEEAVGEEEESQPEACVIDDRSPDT
`COc1ccc(-c2ccc(C#N)cc2)n2nc(C3(C(=O)NCCN(C)S(C)(=O)=O)CC3)nc12` [Compound 220, 1-[5-(4-Cyano-phenyl)-8-methoxy-[1,2,4]triazolo[1,5-a]pyridin-2-yl]-cyclopropanecarboxylic acid [2-(methanesulfonyl-methyl-amino)-ethyl]-amide]: the IC50 is under 0.5 µM.

With `COc1ccc(-c2cccc(C(C)=O)c2)n2nc(C3(C(=O)NCc4cccnc4)CC3)nc12` [Compound 221, 1-[5-(3-Acetyl-phenyl)-8-methoxy-[1,2,4]triazolo[1,5-a]pyridin-2-yl]-cyclopropanecarboxylic acid (pyridin-3-ylmethyl)-amide], the IC50 was under 0.5 µM.

Regarding `COc1ccc(-c2cccc(C(C)=O)c2)n2nc(C3(C(=O)N4CCN(C)CC4)CC3)nc12` [Compound 222, 1-(3-{8-Methoxy-2-[1-(4-methyl-piperazine-1-carbonyl)-cyclopropyl]-[1,2,4]triazolo[1,5-a]pyridin-5-yl}-phenyl)-ethanone], the IC50 lay within 0.5 to 1 µM.

As to `COc1ccc(-c2cccc(C(C)=O)c2)n2nc(C3(C(=O)N4CCOCC4)CC3)nc12` [Compound 223, 1-(3-{8-Methoxy-2-[1-(morpholine-4-carbonyl)-cyclopropyl]-[1,2,4]-triazolo[1,5-a]pyridin-5-yl}-phenyl)-ethanone], the IC50 was under 0.5 µM.

On to `COc1ccc(-c2cccc(C(C)=O)c2)n2nc(C3(C(=O)NCc4ccccc4)CC3)nc12` [Compound 224, 1-[5-(3-Acetyl-phenyl)-8-methoxy-[1,2,4]triazolo[1,5-a]pyridin-2-yl]-cyclopropanecarboxylic acid benzylamide], for which the IC50 is under 0.5 µM.

For `COc1ccc(-c2cccc(C(C)=O)c2)n2nc(C3(C(=O)NCCS(N)(=O)=O)CC3)nc12` [Compound 225, 1-[5-(3-Acetyl-phenyl)-8-methoxy-[1,2,4]triazolo[1,5-a]pyridin-2-yl]-cyclopropanecarboxylic acid (2-sulfamoyl-ethyl)-amide], the IC50 is under 0.5 µM.

As for `COc1ccc(-c2cccc(C(C)=O)c2)n2nc(C3(C(=O)NCCS(C)(=O)=O)CC3)nc12` [Compound 226, 1-[5-(3-Acetyl-phenyl)-8-methoxy-[1,2,4]triazolo[1,5-a]pyridin-2-yl]-cyclopropanecarboxylic acid (2-methanesulfonyl-ethyl)-amide], the IC50 was under 0.5 µM.

For `COc1ccc(-c2cccc(C#N)c2)n2nc(C3(C(=O)NCCO)CC3)nc12` [Compound 228, 1-[5-(3-Cyano-phenyl)-8-methoxy-[1,2,4]triazolo[1,5-a]pyridin-2-yl]-cyclopropanecarboxylic acid (2-hydroxy-ethyl)-amide], the IC50 was under 0.5 µM.

As for `CCCNC(=O)OCC1(c2nc3c(OC)ccc(-c4ccc5c(c4)CCC5=O)n3n2)CC1` [Compound 230, Propyl-carbamic acid 1-[8-methoxy-5-(1-oxo-indan-5-yl)-[1,2,4]triazolo[1,5-a]pyridin-2-yl]-cyclopropylmethyl ester], the IC50 is under 0.5 µM.

Turning to `COc1cc(-c2ccc(OC)c3nc(C4(COC(=O)N(C)C)CC4)nn23)ccc1C#N` [Compound 231, Dimethyl-carbamic acid 1-[5-(4-cyano-3-methoxy-phenyl)-8-methoxy-[1,2,4]triazolo[1,5-a]pyridin-2-yl]-cyclopropylmethyl ester], the IC50 is under 0.5 µM.

For `COc1ccc(-c2cncc(C#N)c2)n2nc(C3(COC(=O)NC(C)C)CC3)nc12` [Compound 232, Isopropyl-carbamic acid 1-[5-(5-cyano-pyridin-3-yl)-8-methoxy-[1,2,4]triazolo[1,5-a]pyridin-2-yl]-cyclopropylmethyl ester], the IC50 is under 0.5 µM.

In the case of `CCCNC(=O)OCC1(c2nc3c(OC)ccc(-c4cccc5c4CCC5=O)n3n2)CC1` [Compound 233, Propyl-carbamic acid 1-[8-methoxy-5-(1-oxo-indan-4-yl)-[1,2,4]triazolo[1,5-a]pyridin-2-yl]-cyclopropylmethyl ester], the IC50 is under 0.5 µM.

Take `COc1cc(-c2ccc(OC)c3nc(C4(COC(=O)N5CCCC5)CC4)nn23)ccc1C#N` [Compound 234, Pyrrolidine-1-carboxylic acid 1-[5-(4-cyano-3-methoxy-phenyl)-8-methoxy-[1,2,4]-triazolo[1,5-a]pyridin-2-yl]-cyclopropylmethyl ester]: the IC50 was under 0.5 µM.

`COc1cc(-c2ccc(OC)c3nc(C4(COC(=O)NC(C)C)CC4)nn23)ccc1C#N` [Compound 235, Isopropyl-carbamic acid 1-[5-(4-cyano-3-methoxy-phenyl)-8-methoxy-[1,2,4]triazolo[1,5-a]pyridin-2-yl]-cyclopropylmethyl ester]: the IC50 is under 0.5 µM.

For `CCCNC(=O)OCC1(c2nc3c(OC)ccc(-c4cncc(C#N)c4)n3n2)CC1` [Compound 236, Propyl-carbamic acid 1-[5-(5-cyano-pyridin-3-yl)-8-methoxy-[1,2,4]triazolo[1,5-a]pyridin-2-yl]-cyclopropylmethyl ester], the IC50 was under 0.5 µM.

As for `CCCNC(=O)OCC1(c2nc3c(OC)ccc(-c4ccc(C#N)c(OC)c4)n3n2)CC1` [Compound 237, Propyl-carbamic acid 1-[5-(4-cyano-3-methoxy-phenyl)-8-methoxy-[1,2,4]triazolo[1,5-a]pyridin-2-yl]-cyclopropylmethyl ester], the IC50 was under 0.5 µM.

On to `COc1ccc(-c2ccc3c(c2)CCC3=O)n2nc(C3(COC(=O)N4CCCC4)CC3)nc12` [Compound 238, Pyrrolidine-1-carboxylic acid 1-[8-methoxy-5-(1-oxo-indan-5-yl)-[1,2,4]triazolo[1,5-a]pyridin-2-yl]-cyclopropylmethyl ester], for which the IC50 is under 0.5 µM.

For `COc1ccc(-c2ccc3c(c2)CCC3=O)n2nc(C3(COC(=O)NC(C)C)CC3)nc12` [Compound 239, Isopropyl-carbamic acid 1-[8-methoxy-5-(1-oxo-indan-5-yl)-[1,2,4]triazolo[1,5-a]pyridin-2-yl]-cyclopropylmethyl ester], the IC50 was under 0.5 µM.

Consider `COc1ccc(-c2cccc3c2CCC3=O)n2nc(C3(COC(=O)NC4CCCCC4)CC3)nc12` [Compound 240, Cyclohexyl-carbamic acid 1-[8-methoxy-5-(1-oxo-indan-4-yl)-[1,2,4]triazolo[1,5-a]pyridin-2-yl]-cyclopropylmethyl ester], for which the IC50 is under 0.5 µM.

With `COc1cc(-c2ccc(OC)c3nc(C4(COC(=O)NC5CCCCC5)CC4)nn23)ccc1C#N` [Compound 241, Cyclohexyl-carbamic acid 1-[5-(4-cyano-3-methoxy-phenyl)-8-methoxy-[1,2,4]triazolo[1,5-a]pyridin-2-yl]-cyclopropylmethyl ester], the IC50 is under 0.5 µM.

Take `COc1ccc(-c2cncc(C#N)c2)n2nc(C3(COC(=O)N4CCCC4)CC3)nc12` [Compound 242, Pyrrolidine-1-carboxylic acid 1-[5-(5-cyano-pyridin-3-yl)-8-methoxy-[1,2,4]triazolo[1,5-a]pyridin-2-yl]-cyclopropylmethyl ester]: the IC50 was under 0.5 µM.

As for `COc1ccc(-c2ccc3c(c2)COC3=O)n2nc(C3(C(=O)NCCS(C)(=O)=O)CC3)nc12` [Compound 269, 1-[8-Methoxy-5-(1-oxo-1,3-dihydro-isobenzofuran-5-yl)-[1,2,4]triazolo[1,5-a]pyridin-2-yl]-cyclopropanecarboxylic acid (2-methanesulfonyl-ethyl)-amide], the IC50 was under 0.5 µM.

Consider `COc1ccc(-c2ccc3c(c2)COC3=O)n2nc(C3(C(=O)NCC4CCCCC4)CC3)nc12` [Compound 270, 1-[8-Methoxy-5-(1-oxo-1,3-dihydro-isobenzofuran-5-yl)-[1,2,4]triazolo[1,5-a]pyridin-2-yl]-cyclopropanecarboxylic acid cyclohexylmethyl-amide], for which the IC50 was under 0.5 µM.

For the origin of these results see patent US8952162B2, “Triazolopyridines as phosphodiesterase inhibitors for treatment of dermal diseases” (Leo Pharma A/S, priority 2008, dated 2015).
